Consider 17 compounds from US12240837B2, “Chemokine receptor modulators and uses thereof” (RAPT THERAPEUTICS, INC., priority 2022, dated 2025).

The test addresses T1, CCR4 receptor (Homo sapiens, UniProt P51679).
T1 construct: beta-galactosidase enzyme-fragment tag (receptor modification for beta-arrestin complementation); expressed in transfected cells; host or cells: CHO-K1
T1 sequence (P51679 1-360): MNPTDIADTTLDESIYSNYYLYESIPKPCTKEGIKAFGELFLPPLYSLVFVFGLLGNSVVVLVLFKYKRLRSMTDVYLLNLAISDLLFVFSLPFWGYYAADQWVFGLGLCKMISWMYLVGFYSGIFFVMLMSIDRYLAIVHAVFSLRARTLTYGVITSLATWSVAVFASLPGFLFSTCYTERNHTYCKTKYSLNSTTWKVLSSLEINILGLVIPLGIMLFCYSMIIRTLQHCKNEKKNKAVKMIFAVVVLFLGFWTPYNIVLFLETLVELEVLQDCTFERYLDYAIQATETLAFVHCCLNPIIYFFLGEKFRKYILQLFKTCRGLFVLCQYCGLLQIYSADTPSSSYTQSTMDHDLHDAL
Description: CCR4 antagonist activity in beta-arrestin cellular assay (PathHunter chemiluminescence). The following applies: CHO-K1 cells expressing CCR4; 30 min pre-incubation; CCL22 challenge at EC80 (15 nM) for 90 minutes; read-out: Potency (CCR4 antagonist IC50 in the β-arrestin assay). The format is cell-based. On the procedure:
CCR4 Antagonistic Activity was assessed in Beta-Arrestin Cellular Assay. Compounds were assessed in CHO-K1 cells expressing the CCR4 receptor modified to enable β-glactosidase detection of p-arrestin agonist activity stimulated by CCL22 in a chemiluminescence assay. Cells were seeded in a total volume of 20 μL into white walled, 384-well microplates and incubated at 37° C. prior to testing. Cells were pre-incubated with test compound for 30 min at 37° C. followed by agonist challenge with CCL22 at the EC80 concentration (15 nM) for 90 minutes. Assay signal was generated through a single addition of 12.5 or 15 μL (50% v/v) of PathHunter Detection reagent cocktail, followed by a one hour incubation at room temperature. Microplates were read following signal generation with a PerkinElmer Envision™ instrument for chemiluminescent signal detection. Antagonist activity was analyzed using CBIS data analysis suite (ChemInnovation, CA). Antagonist activity was characterized as percentage inhibition calculated using the following formula: % Inhibition=100%×(1−(mean RLU of test sample−mean RLU of vehicle control)/(mean RLU of EC80 control−mean RLU of vehicle control)).
An IC50 of >500 nM is designated as Potency C, an IC50 of between 500 nM and 200 nM is designated as Potency B and an IC50 of <200 nM is designated as Potency A.

The term IC50 denotes the concentration at which inhibition is half-maximal. As for `Cc1nc(N2CCC(C3CCCCN3)C2)nc(N[C@H](C)c2ccc(Cl)cc2Cl)c1Cl` (mixture of isomers) [Example 10, 5-chloro-N—((R)-1-(2,4-dichlorophenyl)ethyl)-6-methyl-2-(3-(piperidin-2-yl)pyrrolidin-1-yl)pyrimidin-4-amine], the IC50 is 0.2 to 0.5 µM. For `Cc1nc(N2CCC(C3CCN(C4CC(C)(C(=O)O)C4)C3)C2)nc(N[C@H](C)c2ccc(Cl)cc2Cl)c1Cl` (stereo partly drawn) [Example 4, 3-(1′-(5-chloro-4-(((R)-1-(2,4-dichlorophenyl)ethyl)amino)-6-methylpyrimidin-2-yl)-[3,3′-bipyrrolidin]-1-yl)-1-methylcyclobutane-1-carboxylic Acid] the value was 0.2 to 0.5 µM; for `C[C@@H](Nc1nc(N2CCC(C3CCN(C4CC(C)(C(=O)O)C4)C3)C2)ncc1Cl)c1ccc(Cl)cc1Cl` (stereo partly drawn) [Example 7, 3-(1′-(5-chloro-4-(((R)-1-(2,4-dichlorophenyl)ethyl)amino)pyrimidin-2-yl)-[3,3′-bipyrrolidin]-1-yl)-1-methylcyclobutane-1-carboxylic Acid], 0.2 to 0.5 µM; for `C[C@@H](Nc1nc(N2CCC(C3CCCCN3C3CC(C)(C(=O)O)C3)C2)ncc1Cl)c1ccc(Cl)cc1Cl` (stereo partly drawn) [Example 9, 3-(2-(1-(5-chloro-4-(((R)-1-(2,4-dichlorophenyl)ethyl)amino)pyrimidin-2-yl)pyrrolidin-3-yl)piperidin-1-yl)-1-methylcyclobutane-1-carboxylic Acid], below 0.2 µM. In the case of `Cc1nc(N2CCC(C3CCCCN3C3CC(C)(C(=O)O)C3)C2)nc(N[C@H](C)c2ccc(Cl)cc2Cl)c1Cl` (stereo partly drawn) [Example 11, 3-(2-(1-(5-chloro-4-(((R)-1-(2,4-dichlorophenyl)ethyl)amino)-6-methylpyrimidin-2-yl)pyrrolidin-3-yl)piperidin-1-yl)-1-methylcyclobutane-1-carboxylic Acid], the IC50 was 0.2 to 0.5 µM. As for `Cc1nc(N2CCC(C3CN(C4CC(C)(C(=O)O)C4)C3)C2)nc(N[C@H](C)c2ccc(Cl)cc2Cl)c1Cl` (mixture of isomers) [Example 3, 3-(3-(1-(5-chloro-4-(((R)-1-(2,4-dichlorophenyl)ethyl)amino)-6-methylpyrimidin-2-yl)pyrrolidin-3-yl)azetidin-1-yl)-1-methylcyclobutane-1-carboxylic Acid], the IC50 is above 0.5 µM.

`Cc1nc(N2CCC(C3CCCN(CCC(=O)O)C3)CC2)nc(N[C@H](C)c2ccc(Cl)cc2Cl)c1Cl` (stereo partly drawn) [Example 17, 3-(1′-(5-chloro-4-(((R)-1-(2,4-dichlorophenyl)ethyl)amino)-6-methylpyrimidin-2-yl)-[3,4′-bipiperidin]-1-yl)propanoic Acid]: the IC50 was below 0.2 µM. For `Cc1nc(N2CCC(C3CCCN(C4CC(C(=O)O)C4)C3)CC2)nc(N[C@H](C)c2ccc(Cl)cc2Cl)c1Cl` (stereo partly drawn) [Example 13, 3-(1′-(5-chloro-4-(((R)-1-(2,4-dichlorophenyl)ethyl)amino)-6-methylpyrimidin-2-yl)-[3,4′-bipiperidin]-1-yl)cyclobutane-1-carboxylic Acid] the value was below 0.2 µM; for `Cc1nc(N2CCC(C3CCCN(C4CC(C)(C(=O)O)C4)C3)C2)nc(N[C@H](C)c2ccc(Cl)cc2Cl)c1Cl` (stereo partly drawn) [Example 1, 3-(3-(1-(5-chloro-4-(((R)-1-(2,4-dichlorophenyl)ethyl)amino)-6-methylpyrimidin-2-yl)pyrrolidin-3-yl)piperidin-1-yl)-1-methylcyclobutane-1-carboxylic Acid], below 0.2 µM. For `C[C@@H](Nc1nc(N2CCC(C3CCCN(C4CC(C)(C(=O)O)C4)C3)C2)ncc1Cl)c1ccc(Cl)cc1Cl` (stereo partly drawn) [Example 5, 3-(3-(1-(5-chloro-4-(((R)-1-(2,4-dichlorophenyl)ethyl)amino)pyrimidin-2-yl)pyrrolidin-3-yl)piperidin-1-yl)-1-methylcyclobutane-1-carboxylic Acid] the value was below 0.2 µM. For `C[C@@H](Nc1nc(N2CCC(C3CCCN(CCC(=O)O)C3)CC2)ncc1Cl)c1ccc(Cl)cc1Cl` (stereo partly drawn) [Example 16, 3-(1′-(5-chloro-4-(((R)-1-(2,4-dichlorophenyl)ethyl)amino)pyrimidin-2-yl)-[3,4′-bipiperidin]-1-yl)propanoic Acid] the value was below 0.2 µM; for `C[C@@H](Nc1nc(N2CCC(C3CCCN(C4CC(C(=O)O)C4)C3)CC2)ncc1Cl)c1ccc(Cl)cc1Cl` (stereo partly drawn) [Example 12, 3-(1′-(5-chloro-4-(((R)-1-(2,4-dichlorophenyl)ethyl)amino)pyrimidin-2-yl)-[3,4′-bipiperidin]-1-yl)cyclobutane-1-carboxylic Acid], below 0.2 µM; for `Cc1nc(N2CCC(C3CCCN(C(C)C(=O)O)C3)CC2)nc(N[C@H](C)c2ccc(Cl)cc2Cl)c1Cl` (stereo partly drawn) [Example 14, 2-(1′-(5-chloro-4-(((R)-1-(2,4-dichlorophenyl)ethyl)amino)-6-methylpyrimidin-2-yl)-[3,4′-bipiperidin]-1-yl)propanoic Acid], below 0.2 µM. For `C[C@@H](Nc1nc(N2CCC(C3CCCN(C4CC(C)(C(=O)O)C4)C3)CC2)ncc1Cl)c1ccc(Cl)cc1Cl` (mixture of isomers) [Example 6, 3-(1′-(5-chloro-4-(((R)-1-(2,4-dichlorophenyl)ethyl)amino)pyrimidin-2-yl)-[3,4′-bipiperidin]-1-yl)-1-methylcyclobutane-1-carboxylic Acid], the IC50 is below 0.2 µM.

For `C[C@@H](Nc1nc(N2CCC(C3CCCCN3)C2)ncc1Cl)c1ccc(Cl)cc1Cl` (mixture of isomers) [Example 8, 5-chloro-N—((R)-1-(2,4-dichlorophenyl)ethyl)-2-(3-(piperidin-2-yl)pyrrolidin-1-yl)pyrimidin-4-amine], the IC50 is below 0.2 µM. For `Cc1nc(N2CCC(C3CCCN(C4CC(C)(C(=O)O)C4)C3)CC2)nc(N[C@H](C)c2ccc(Cl)cc2Cl)c1Cl` (stereo partly drawn) [Example 2, 3-(1′-(5-chloro-4-(((R)-1-(2,4-dichlorophenyl)ethyl)amino)-6-methylpyrimidin-2-yl)-[3,4′-bipiperidin]-1-yl)-1-methylcyclobutane-1-carboxylic Acid] the value was below 0.2 µM; for `CC(C(=O)O)N1CCCC(C2CCN(c3ncc(Cl)c(N[C@H](C)c4ccc(Cl)cc4Cl)n3)CC2)C1` (stereo partly drawn) [Example 15, 2-(1′-(5-chloro-4-(((R)-1-(2,4-dichlorophenyl)ethyl)amino)pyrimidin-2-yl)-[3,4′-bipiperidin]-1-yl)propanoic Acid], below 0.2 µM.
